pKi: −log10 of the molar value.
Columns and labels:
[1] = molecular target: α2-receptors; assay: ALPHA-2 binding, p-125Iodoclonidine, canine brain (frontal cortex) membranes; set-up: species or system dog
Description: Membranes of mongrel dogs were harvested from the canine frontal cortex and prepared as described for lung except that the final membrane protein concentration was adjusted to 0.5 mg/ml.
Nonspecific binding was determined in separate incubations in the presence of 10 μM phentolamine. The final concentration of p-iodoclonidine was 44-45 pM in competition studies and between 50 pM and 10 nM in saturation experiments. Bound and free […] were separated and the bound quantitated as described above for the ICYP assays.
All data were analyzed with the aid of microcomputer nonlinear curve fitting programs (PRISM 2.0, Graphpad Software, San Diego Calif.).
The receptors resident in each of the three membrane preparations were evaluated by standard saturation analysis following the addition of increasing concentrations of the appropriate radioligand.
The radio ligand added for subsequent α2-displacement assays was adjusted to evaluate only the high affinity receptor. Contributions from p-iodoclonidine binding to imidazoline receptors in the α2-displacement assay were evaluated with epinephrine.

[2] = test system: histamine-challenged rats; assay: Nasal airway pressure in histamine-challenged rats; details: for Nasal airway pressure, Post Drug: 100% dose i.v. two minutes after histamine; for Nasal airway pressure, Post Histamine: after intranasal histamine 50 mM 0.02 ml/nostril, before drug; for Nasal airway pressure, Control: before histamine and drug; for Mean decrease in nasal airway pressure, % Change: post drug vs post histamine
[3] = test system: Swiss-Webster mice; details: mice pretreated with 0.01, 0.1 or 1.0 mg/kg triprolidine

With `CN[C@@H](C)[C@H](O)c1ccccc1` [(−)-ephedrine] the pKi [1] was […], the IC50 ([1]; Table 4, no unit in table, IC50 defined in μM, read-out: Alpha-2 IC50) was […] and the “Nasal airway pressure, Post Drug” value [2] was 6.4 mm water. The “Nasal airway pressure, Post Histamine” value [2] was 8.2 ± 0.7 mm water, the “Nasal airway pressure, Control” value [2] was 6.7 ± 0.4 mm water and the “Mean decrease in nasal airway pressure, % Change” value [2] was −21.8%.

In the case of `CNC[C@H](O)c1cccc(O)c1` [(−)-phenylephrine], the “modification of stimulant or depressant effects by triprolidine pretreatment” value [3] was “did not show significant modification of stimulant or depressant effects”, the “Nasal airway pressure, Post Drug” value [2] was 10.5 mm water and the “Nasal airway pressure, Post Histamine” value [2] was 13.2 ± 2.1 mm water. The “Nasal airway pressure, Control” value [2] was 7.5 ± 0.5 mm water and the “Mean decrease in nasal airway pressure, % Change” value [2] was −22.3%.
